Results taken from PMC12196476, “New Nitrogen-, Oxygen-, and Sulfur-Containing Heterocyclic Compounds as Anti-Colon Cancer Agents: Synthesis, Multitargeted Evaluations, Molecular Docking Simulations and ADMET Predictions” (Pharmaceuticals, 2025).

What was measured:
LoVo cells = experiment: Cell cycle assay (PI flow cytometry), LoVo; format: cell-based, human; conditions: 30 µg/mL, 48 h, mean of n = 2 (Figure 1E); untreated control 11.51 ± 1.24%
Description: Cell proliferation depends on orderly progression through the phases of the cell cycle (G1−S−G2−M). Cytotoxic agents can impair the integrity of DNA, leading to checkpoint arrest at G1/S or G2/M, which subsequently blocks proliferation. To evaluate the impact of compound 3d on cell cycle distribution, colon carcinoma cells were treated with 30 µg/mL of 3d for 48 h, followed by DNA content analysis using flow cytometry. […] In contrast, in HCT-116 cells, 3d caused an accumulation in the G1 phase, reaching 60.17 ± 1.44% versus 47.37 ± 1.68% in untreated cells (Figure 1E). […]
(§1) medium served used as negative and positive controls, respectively. Percentages of viable cells […]
(§2) wells (final concentration of 100 μg/mL), compared to the negative control, and expressed as mean value (%) ± SD from two replicates. Graphing dose-response curves representing the compound […]
(§3) (HUVECs) at final concentration of 100 μg/mL . HUVECs were grown in Dulbecco’s Modified Eagle’s Medium supplemented with 10% FBS, 2 mM glutamine (Sigma Aldrich), 100 units/mL penicillin and […] streptomycin (Life Technologies; Paisley, UK).
(§4) S3.2.5. Cell cycle assay.
(§5) HCT-116 and LoVo cultures upon treatment with compound 3d. HCT-116 and LoVo carcinoma […]
(§6) μg/mL for 48 h. […] Then, cells […]
(§7) of stained cancerous cells were determined. […]
carcinoma cells treated with compound 3d was assessed using the TMRE Mitochondrial Membrane

HCT-116 cells = experiment: Mitochondrial membrane potential (TMRE staining), HCT-116; format: cell-based, human; conditions: 30 µg/mL, 48 h
Description: To assess mitochondrial integrity, TMRE staining was used to measure ΔΨm.
The mitochondrial transmembrane potential was measured using a tetramethylrhodamine, ethyl ester (TMRE) mitochondrial membrane potential assay kit. […]
as §1, §2, §3, §4, §5, §6
were fixed by mixing […] of 90% cold ethanol and stained with propidium iodide (PI) for 1 h at 37 °C. […]
as §7
carcinoma cells treated with compound 3d was assessed using the TMRE Mitochondrial Membrane […]
for TMRE staining. TMRE was excited using a 488 nm laser and detected in the FL2 channel at 575 […]
S3.2.9. Quantification of the Expression Levels of Bax, Bcl-2 and Caspase-3 Genes […]

With `COc1cc(/C=N/c2ncnc3sc4c(c23)CCCC4)cc(OC)c1OC` [Compound 3d, (E)-N-(5,6,7,8-Tetrahydrobenzo[4,5]thieno[2,3-d]pyrimidin-4-yl)-1-(3,4,5-trimethoxyphenyl)methanimine] the “% of Cell population, LoVo: %G2/M” value (LoVo cells) was 24.06 ± 1.32% and the “Reduction of mitochondrial membrane potential (ΔΨm), HCT-116 cells” value (HCT-116 cells) was 43.47 ± 0.81%.
